# In BindingDB's records for doi:10.1016/j.bmcl.2006.04.011 (Ambrilia Biopharma, 2006):
# pIC50, pKi: −log10 of the molar value.
# Biological target: T1, Dimer of Gag-Pol polyprotein [501-599] (Human immunodeficiency virus 1, UniProt P03367)
# T1 construct: 501-599
# Assay: Protease Inhibition Assay
# Conditions: not given
# Procedure: HIV-1 protease activity was measured by a continuous fluorometric assay. The proteolytic activity can be monitored by the increase in fluorescence intensity, and the protease products were analyzed by HPLC. IC50 values were determined from a dose-response curve, whereas Ki values were obtained by fitting initial rates to a tight-binding inhibition equation.
Structure (SMILES),pIC50,pKi
"CC(C)CN(C(CO)CCCCNC(=O)[C@@H](NC(=O)c1ccc(O)cc1)C(c1ccccc1)c1ccccc1)S(=O)(=O)c1ccc(N)cc1 (stereo partly drawn) [(2S)-N-[(5R)-5-[(4-aminobenzene)(2-methylpropyl)sulfonamido]-6-hydroxyhexyl]-2-[(4-hydroxyphenyl)formamido]-3,3-diphenylpropanamide]",9.28,9.33
"CC(C)CN(C(CO)CCCCNC(=O)[C@@H](NC(=O)N(C)C)C(c1ccccc1)c1ccccc1)S(=O)(=O)c1ccc(N)cc1 (stereo partly drawn) [(2S)-N-[(5R)-5-[(4-aminobenzene)(2-methylpropyl)sulfonamido]-6-hydroxyhexyl]-2-[(dimethylcarbamoyl)amino]-3,3-diphenylpropanamide]",9.36,9.24
"CC(C)CN(C(CO)CCCCNC(=O)[C@@H](NC(=O)c1ccc(O)c([N+](=O)[O-])c1)C(c1ccccc1)c1ccccc1)S(=O)(=O)c1ccc(N)cc1 (stereo partly drawn) [(2S)-N-[(5R)-5-[(4-aminobenzene)(2-methylpropyl)sulfonamido]-6-hydroxyhexyl]-2-[(4-hydroxy-3-nitrophenyl)formamido]-3,3-diphenylpropanamide]",9.25,9.32
"CC(=O)N[C@H](C(=O)NCCCCC(CO)N(CC(C)C)S(=O)(=O)c1ccc(N)cc1)C(c1ccccc1)c1ccccc1 (stereo partly drawn) [(2S)-N-[(5R)-5-[(4-aminobenzene)(2-methylpropyl)sulfonamido]-6-hydroxyhexyl]-2-acetamido-3,3-diphenylpropanamide]",8.82,–
"CC(C)CN(C(CO)CCCCNC(=O)[C@@H](NC(=O)C1CC1)C(c1ccccc1)c1ccccc1)S(=O)(=O)c1ccc(N)cc1 (stereo partly drawn) [(2S)-N-[(5R)-5-[(4-aminobenzene)(2-methylpropyl)sulfonamido]-6-hydroxyhexyl]-2-(cyclopropylformamido)-3,3-diphenylpropanamide]",9.37,9.35

# Same assay, conditions: pH 4.7; 30 °C
row,Structure (SMILES),pIC50
1,COC(=O)N[C@@H](Cc1ccccc1-c1ccccc1)C(=O)NCCCCC(CO)N(CC(C)C)S(=O)(=O)c1ccc(N)cc1 (stereo partly drawn) [methyl N-[(1S)-1-{[(5R)-5-[(4-aminobenzene)(2-methylpropyl)sulfonamido]-6-hydroxyhexyl]carbamoyl}-2-(2-phenylphenyl)ethyl]carbamate],9.28
